Reference: ChEMBL document CHEMBL4138123, “Design, synthesis and biological evaluation of novel pyrazolochalcones as potential modulators of PI3K/Akt/mTOR pathway and inducers of apoptosis in breast cancer cells” (Eur J Med Chem, 2017)

Assays:
MCF7 [1] = experiment: Cytotoxicity against human MCF7 cells assessed as growth inhibition after 48 hrs by MTT assay; assay type: functional, cell-based; conditions: MCF7, 48 h
MDA-MB-231 = experiment: Cytotoxicity against human MDA-MB-231 cells assessed as growth inhibition after 48 hrs by MTT assay; assay type: functional, cell-based; conditions: MDA-MB-231, 48 h
MCF7 [2] = experiment: Induction of intrinsic apoptosis in human MCF7 cells assessed as effect on mitochondrial membrane depolarization at 2 uM after 5 hrs by DiOC6 staining-based FACS analysis relative to control; assay type: functional
MCF7 [3] = experiment: Induction of intrinsic apoptosis in human MCF7 cells assessed as effect on mitochondrial membrane depolarization at 2 uM after 18 hrs by DiOC6 staining-based FACS analysis (reference value: 2%); assay type: functional
MCF7 [4] = experiment: Induction of intrinsic apoptosis in human MCF7 cells assessed as effect on mitochondrial membrane depolarization by measuring mean fluorescence intensity at 2 uM after 18 hrs by DiOC6 staining-based FACS analysis (reference value: 463); assay type: functional
MCF7 [5] = experiment: Cell cycle arrest in human MCF7 cells assessed as accumulation at G0/G1 phase at 2 uM after 24 hrs by flow cytometric analysis (reference value: 18.4%); assay type: functional
MCF7 [6] = experiment: Cell cycle arrest in human MCF7 cells assessed as accumulation at G2/M phase at 2 uM after 24 hrs by flow cytometric analysis (reference value: 2.35%); assay type: functional
MCF7 [7] = experiment: Cell cycle arrest in human MCF7 cells assessed as accumulation at S phase at 2 uM after 24 hrs by flow cytometric analysis (reference value: 79.1%); assay type: functional
MCF7 [8] = experiment: Cell cycle arrest in human MCF7 cells assessed as accumulation at G0/G1 phase at 2 uM after 48 hrs by flow cytometric analysis (reference value: 34.2%); assay type: functional
MCF7 [9] = experiment: Cell cycle arrest in human MCF7 cells assessed as accumulation at S phase at 2 uM after 48 hrs by flow cytometric analysis (reference value: 57.7%); assay type: functional
MCF7 [10] = experiment: Cell cycle arrest in human MCF7 cells assessed as accumulation at G2/M phase at 2 uM after 48 hrs by flow cytometric analysis (reference value: 8.1%); assay type: functional
MCF7 [11] = experiment: Induction of apoptosis in human MCF7 cells assessed as late apoptotic cells at 2 uM after 24 hrs by Annexin-V FITC/propidium iodide staining-based FACS analysis (reference value: 5.4%); assay type: functional
MCF7 [12] = experiment: Induction of apoptosis in human MCF7 cells assessed as early apoptotic cells at 2 uM after 24 hrs by Annexin-V FITC/propidium iodide staining-based FACS analysis (reference value: 0.5%); assay type: functional
MCF7 [13] = experiment: Induction of apoptosis in human MCF7 cells assessed as viable cells at 2 uM after 24 hrs by Annexin-V FITC/propidium iodide staining-based FACS analysis (reference value: 93.9%); assay type: functional; conditions: MCF7, 24 h, read-out: Activity
MCF7 [14] = experiment: Induction of apoptosis in human MCF7 cells assessed as necrotic cells at 2 uM after 24 hrs by Annexin-V FITC/propidium iodide staining-based FACS analysis (reference value: 0.2%); assay type: functional

SMILES	IC50 (MCF7 [1])	IC50 (MDA-MB-231)	other results
COc1cc2c(cc1OC)C(=O)/C(=C/c1cc(-c3cc(OC)c(OC)c(OC)c3)n[nH]1)C2	2 µM	2.5 µM	
CC(=O)/C=C/c1cc(-c2ccc3c(c2)OCO3)n[nH]1	21.6 µM	20.2 µM	
COc1ccc(C(=O)/C=C/c2cc(-c3ccc4c(c3)OCO4)n[nH]2)cc1F	13.5 µM	15.9 µM	
O=C(/C=C/c1cc(-c2ccc3c(c2)OCO3)n[nH]1)c1ccc(Cl)c(Cl)c1	10.8 µM	14.8 µM	
COc1cc(-c2cc(/C=C3\Cc4ccccc4C3=O)[nH]n2)cc(OC)c1OC	4.8 µM	7.1 µM	
O=C1CCCC/C1=C\c1cc(-c2ccc3c(c2)OCO3)n[nH]1	15.1 µM	11.8 µM	
COc1ccc(C(=O)/C=C/c2cc(-c3cc(OC)c(OC)c(OC)c3)n[nH]2)cc1F	3 µM	2.7 µM	
COc1ccc(C(=O)/C=C/c2cc(-c3ccc4c(c3)OCO4)n[nH]2)cc1	3.5 µM	3.5 µM	
COc1ccc(/C=C\c2cc(OC)c(OC)c(OC)c2)cc1O [COMBRETASTATIN A4]	0.12 µM	0.17 µM	Activity (MCF7 [2]): 7.6%; Activity (MCF7 [3]): 46%; Flu intensity (MCF7 [4]): 558; Activity (MCF7 [5]): 0%; Activity (MCF7 [6]): 56.3%; Activity (MCF7 [7]): 46.3%; Activity (MCF7 [8]): 2.4%; Activity (MCF7 [9]): 12%; Activity (MCF7 [10]): 85.5%; Activity (MCF7 [11]): 16.8%; Activity (MCF7 [12]): 6.1%; viability at 2 µM (MCF7 [13]): 75.8%; Activity (MCF7 [14]): 1.3%
COc1cc(-c2cc(/C=C/C(=O)c3ccccc3)[nH]n2)cc(OC)c1OC	2.1 µM	2.3 µM	
COc1cc(-c2cc(/C=C3\CCc4ccccc4C3=O)[nH]n2)cc(OC)c1OC	8.5 µM	9.5 µM	
COc1cc(-c2cc(/C=C/C(C)=O)[nH]n2)cc(OC)c1OC	20.1 µM	27.3 µM	
COc1cc(-c2cc(/C=C3\CCCCC3=O)[nH]n2)cc(OC)c1OC	10.1 µM	17.8 µM	
COc1ccc(-c2cc(/C=C/C(=O)c3cc(OC)c(OC)c(OC)c3)[nH]n2)cc1	2 µM	2.4 µM	
COc1ccc2c(c1)C/C(=C\c1cc(-c3cc(OC)c(OC)c(OC)c3)n[nH]1)C2=O	2.1 µM	2 µM	
O=C(/C=C/c1cc(-c2ccc3c(c2)OCO3)n[nH]1)c1ccc(F)c(F)c1	8.1 µM	12.1 µM	
O=C1/C(=C/c2cc(-c3ccc4c(c3)OCO4)n[nH]2)CCc2ccccc21	9.9 µM	12.6 µM	
Nc1ccc(C(=O)/C=C/c2cc(-c3ccc4c(c3)OCO4)n[nH]2)cc1	3.5 µM	5.1 µM	
O=C(/C=C/c1cc(-c2ccc3c(c2)OCO3)n[nH]1)c1ccc2c(c1)OCO2	2.1 µM	3.3 µM	
COc1ccc(-c2cc(/C=C/C(=O)c3ccc4c(c3)OCO4)[nH]n2)cc1	2.5 µM	3.3 µM	
O=C(/C=C/c1cc(-c2ccc3c(c2)OCO3)n[nH]1)c1ccc(Cl)cc1	15 µM	17.5 µM	
COc1ccc2c(c1)C/C(=C\c1cc(-c3ccc4c(c3)OCO4)n[nH]1)C2=O	2.7 µM	4.1 µM	
O=C1/C(=C/c2cc(-c3ccc4c(c3)OCO4)n[nH]2)Cc2ccccc21	5.1 µM	8.3 µM	
O=C(/C=C/c1cc(-c2ccc3c(c2)OCO3)n[nH]1)c1ccccc1	8 µM	12.1 µM	
COc1cc(-c2cc(/C=C/C(=O)c3ccc(Cl)cc3)[nH]n2)cc(OC)c1OC	11.6 µM	26 µM	
COc1cccc2c1C(=O)c1c(O)c3c(c(O)c1C2=O)C[C@@](O)(C(=O)CO)C[C@@H]3O[C@H]1C[C@H](N)[C@H](O)[C@H](C)O1.Cl [DOXORUBICIN HYDROCHLORIDE]			Activity (MCF7 [5]): 82.5%; Activity (MCF7 [6]): 1.2%; Activity (MCF7 [7]): 16.2%; Activity (MCF7 [8]): 59.1%; Activity (MCF7 [9]): 40.1%; Activity (MCF7 [10]): 0.8%
